Results taken from patent US9272027B1 (priority 2014, dated 2016).

System: F. tularensis Schu4
Test: microbe, parasite or virus in culture
Assay type: cell-based
Details: Francisella tularensis, SCHU4, 44 h, read-out: IC50 of F. tularensis Schu4 growth inhibition

`O=CN(O)CCCP(=O)(O)O` [fosmidomycin] showed an IC50 of 5 µM.
